≈ marks a conversion by molar mass, not a printed value.

In test [1] the test system is E. faecium clinical isolate. The test can be described thus: Inhibition of bacterial growth (MIC), Efcm. It counts as cell-based. The following applies: Enterococcus faecium, 16 to 18 hours, 37° C., read-out: Minimum Inhibitory Concentration for Bacterial Growth, Efcm. In a few lines: (§1)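 Broth microdilution; inoculum 1×10^5 CFU/mL, LB or BHI; 11 two-fold dilutions, typically 80-0.078 μg/mL; 1% DMSO final; 37° C., shaken, 16-18 h; OD570 read-out. MIC = lowest concentration without growth.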

In test [2] the target is T1, B. subtilis pol IIIC (Bacillus subtilis, UniProt P13267).
T1 construct: made in house
The test can be described thus: Classical enzyme kinetic analyses (Lineweaver-Burk) with pol IIIC. It counts as biochemical. The following applies: variable substrate dGTP; Compound 17 at 0, 20, 60 μM; HB-EMAU at 0, 1.6, 4.8 μM. How it is done: The variable substrate in the experiments for FIGS. 1A and 1B was dGTP. See text for details.
Classical enzyme kinetic analyses were performed with Compound 17 and pol IIIC in which reaction velocity was measured as a function of each substrate (dGTP) concentration at several inhibitor concentrations (0, 20, and 60 μM). The results are graphed in a double reciprocal plot by the method of Lineweaver and Burk in FIG. 1A and show the effect of varying dGTP.
Compounds of the anilinouracil (AU) family, classical DNA polymerase inhibitors, inhibit pol IIIC strictly by “competitive” inhibition. An example is shown in the double reciprocal plot in FIG. 1B for the compound N3-hydroxybutyl 6-(3′-ethyl-4′-methylanilino) uracil (HB-EMAU), tested at 0, 1.6, and 4.8 μM. Such AU compounds compete with the dGTP substrate for binding to the enzyme (Clements et al., J. Biol. Chem. 250, 522-526 (1975)). “Noncompetive” inhibitors are exemplified by the class of HIV reverse transcriptase inhibitors, 4,5,6,7-tetrahydro-5-methylimidazo[4,5,1-jk][1,4]benzodiazepin-2(1H)-one (TIBO), i.e., TIBO compounds bind a site adjacent to the active site (Spence et al., Science 267, 988-993 (1995)). In contrast, the data in FIG. 1A clearly indicate that Compound 17, a pyrazole carboxylic acid hydrazide, inhibits pol IIIC by an “uncompetitive” mechanism.

In test [3] the test system is Escherichia coli strain J53. Kind of test: Inhibition of bacterial growth (MIC), Ec. It counts as cell-based. As to conditions: 16 to 18 hours, 37° C., read-out: Minimum Inhibitory Concentration for Bacterial Growth, Ec. A digest of the protocol: as §1
Test [4] concerns Enterococcus faecalis strain 29212. The test can be described thus: Inhibition of bacterial growth (MIC), Efcl. As to conditions: 16 to 18 hours, 37° C., read-out: Minimum Inhibitory Concentration for Bacterial Growth, Efcl. It counts as cell-based. A digest of the protocol:
as §1

The target of another test is T2, B. subtilis pol IIIE (Bacillus subtilis, UniProt O34623).
T2 construct: made in house
The test can be described thus: DNA polymerase assay, B. subtilis pol IIIE. It counts as biochemical.

Test [5] deals with Bacillus subtilis strain BD54. The test can be described thus: Inhibition of bacterial growth (MIC), Bs. It counts as cell-based. As to conditions: 16 to 18 hours, 37° C., read-out: Minimum Inhibitory Concentration for Bacterial Growth, Bs. In a few lines: as §1
In test [6] the target is T1, B. subtilis pol IIIC. The test can be described thus: DNA polymerase assay, B. subtilis pol IIIC. It counts as biochemical.
The test system of test [7] is Staphylococcus aureus strain IP 8. The test can be described thus: Inhibition of bacterial growth (MIC), Sa. The following applies: IP8, 16 to 18 hours, 37° C., read-out: Minimum Inhibitory Concentration for Bacterial Growth, Sa. It counts as cell-based. In a few lines:
as §1

A further test relates to test strains of bacteria. The test can be described thus: Inhibition of bacterial growth, whole panel of test strains. It counts as cell-based. On the procedure: Each compound was assayed against a panel of a strain of Bacillus subtilis, of strains of antibiotic-resistant and sensitive Enterococcus and Staphylococcus species, and of a strain of the Gram-negative bacterium Escherichia coli. Compounds were dissolved in DMSO at 100× the desired highest concentration and added to one well of a 96-well microassay plate. Two-fold serial drug dilutions were made across the plate in DMSO to yield 11 concentrations (usually 80-0.078 μg/mL) plus an untreated control. Drugs were then transferred to fresh plates using 1.5 μL per well. Log phase cultures were diluted to yield a concentration of 1×10^5 colony forming units/mL in either LB or BHI medium and transferred to the plates containing drug for a final volume of 150 μL. Each well, including the DMSO controls, contained a final concentration of 1% DMSO. Plates were incubated with shaking at 37° C. for 16 to 18 hours. Cell growth was determined by measuring optical density (570 nm, 1 cm path length) in a microplate reader. MIC (minimum inhibitory concentration) is equivalent to the lowest concentration at which growth is not observed. The bacterial strains and MIC determinations have been well characterized and are described elsewhere (Tarantino et al., Antimicrob. Agents Chemother., 43: 1982-1987 (1999); Daly et al., Antimicrob. Agents Chemother., 44: 2217-2221 (2000)).

Test [8] concerns vancomycin-resistant Enterococcus strain B42762. The test can be described thus: Inhibition of bacterial growth (MIC), VRE. It counts as cell-based. As to conditions: VRE, 16 to 18 hours, 37° C., read-out: Minimum Inhibitory Concentration for Bacterial Growth, VRE. A digest of the protocol: as §1
For test [9], the system named is methicillin-resistant S. aureus strain 1094. The test can be described thus: Inhibition of bacterial growth (MIC), MRSA. It counts as cell-based, Staphylococcus aureus. The following applies: Staphylococcus aureus, MRSA, 16 to 18 hours, 37° C., read-out: Minimum Inhibitory Concentration for Bacterial Growth, MRSA. In a few lines:
as §1

T2 sequence (O34623 whole entry): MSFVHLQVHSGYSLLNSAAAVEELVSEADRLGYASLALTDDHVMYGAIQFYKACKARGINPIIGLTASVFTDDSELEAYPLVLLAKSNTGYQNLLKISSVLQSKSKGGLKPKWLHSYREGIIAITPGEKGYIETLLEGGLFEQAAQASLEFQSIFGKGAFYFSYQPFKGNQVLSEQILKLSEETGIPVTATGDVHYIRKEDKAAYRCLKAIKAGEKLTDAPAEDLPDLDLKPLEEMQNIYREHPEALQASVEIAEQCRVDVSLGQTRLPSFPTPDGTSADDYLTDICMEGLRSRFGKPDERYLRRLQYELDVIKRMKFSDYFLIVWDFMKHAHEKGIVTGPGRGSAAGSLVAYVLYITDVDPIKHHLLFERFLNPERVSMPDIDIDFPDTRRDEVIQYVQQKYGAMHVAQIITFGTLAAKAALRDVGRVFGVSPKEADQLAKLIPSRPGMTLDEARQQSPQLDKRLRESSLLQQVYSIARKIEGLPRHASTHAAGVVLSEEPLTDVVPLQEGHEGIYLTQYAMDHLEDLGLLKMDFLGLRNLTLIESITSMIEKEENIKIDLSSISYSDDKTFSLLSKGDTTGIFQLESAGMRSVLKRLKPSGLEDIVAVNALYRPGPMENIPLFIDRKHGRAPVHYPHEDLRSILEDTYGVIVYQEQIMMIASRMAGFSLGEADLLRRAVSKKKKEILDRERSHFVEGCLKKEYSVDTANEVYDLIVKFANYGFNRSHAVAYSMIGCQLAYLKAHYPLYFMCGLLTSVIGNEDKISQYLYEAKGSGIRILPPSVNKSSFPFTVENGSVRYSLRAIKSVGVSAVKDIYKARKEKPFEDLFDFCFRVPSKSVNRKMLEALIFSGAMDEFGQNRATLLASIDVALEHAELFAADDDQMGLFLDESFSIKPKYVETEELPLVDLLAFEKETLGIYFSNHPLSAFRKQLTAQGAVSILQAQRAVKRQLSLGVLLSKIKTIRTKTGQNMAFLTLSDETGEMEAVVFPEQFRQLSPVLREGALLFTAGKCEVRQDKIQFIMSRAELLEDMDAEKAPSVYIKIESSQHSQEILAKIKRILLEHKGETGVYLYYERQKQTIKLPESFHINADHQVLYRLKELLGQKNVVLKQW
T1 sequence (P13267 whole entry): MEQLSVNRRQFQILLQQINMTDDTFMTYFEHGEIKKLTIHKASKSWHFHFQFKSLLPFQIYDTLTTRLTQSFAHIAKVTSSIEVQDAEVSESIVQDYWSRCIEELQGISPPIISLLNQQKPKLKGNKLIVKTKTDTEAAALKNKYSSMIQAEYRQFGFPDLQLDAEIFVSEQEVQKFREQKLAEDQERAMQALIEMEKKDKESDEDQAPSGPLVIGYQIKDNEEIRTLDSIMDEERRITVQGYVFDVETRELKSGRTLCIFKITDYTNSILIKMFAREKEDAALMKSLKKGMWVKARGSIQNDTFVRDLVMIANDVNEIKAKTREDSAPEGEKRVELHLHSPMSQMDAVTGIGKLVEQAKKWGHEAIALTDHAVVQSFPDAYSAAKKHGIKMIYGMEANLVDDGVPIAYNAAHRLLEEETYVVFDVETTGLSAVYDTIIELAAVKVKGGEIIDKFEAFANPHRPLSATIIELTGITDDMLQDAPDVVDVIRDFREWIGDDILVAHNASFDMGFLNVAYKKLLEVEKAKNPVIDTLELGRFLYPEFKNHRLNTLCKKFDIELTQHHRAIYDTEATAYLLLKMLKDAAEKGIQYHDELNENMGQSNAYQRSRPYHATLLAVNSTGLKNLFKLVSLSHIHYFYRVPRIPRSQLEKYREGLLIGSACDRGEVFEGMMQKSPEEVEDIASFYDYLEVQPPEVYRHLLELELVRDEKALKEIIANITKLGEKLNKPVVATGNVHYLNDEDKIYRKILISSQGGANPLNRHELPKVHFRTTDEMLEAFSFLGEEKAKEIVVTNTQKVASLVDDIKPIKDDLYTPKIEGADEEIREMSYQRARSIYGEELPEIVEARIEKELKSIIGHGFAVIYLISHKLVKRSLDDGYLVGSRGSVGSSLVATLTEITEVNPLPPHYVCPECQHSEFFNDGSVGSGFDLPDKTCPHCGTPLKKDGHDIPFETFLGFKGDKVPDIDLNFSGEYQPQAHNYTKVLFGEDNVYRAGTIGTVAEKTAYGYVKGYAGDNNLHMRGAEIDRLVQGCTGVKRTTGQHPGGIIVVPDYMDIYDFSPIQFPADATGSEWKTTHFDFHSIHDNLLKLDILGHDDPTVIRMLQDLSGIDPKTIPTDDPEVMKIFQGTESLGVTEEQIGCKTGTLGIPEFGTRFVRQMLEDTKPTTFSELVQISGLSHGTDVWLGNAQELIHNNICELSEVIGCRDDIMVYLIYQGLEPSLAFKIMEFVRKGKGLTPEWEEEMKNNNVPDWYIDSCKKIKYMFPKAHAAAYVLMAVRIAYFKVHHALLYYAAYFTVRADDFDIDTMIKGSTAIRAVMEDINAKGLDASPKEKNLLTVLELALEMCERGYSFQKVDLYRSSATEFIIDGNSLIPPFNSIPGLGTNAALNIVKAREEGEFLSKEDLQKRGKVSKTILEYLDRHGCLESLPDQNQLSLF

On to `COc1ccc(-c2cc(C(=O)NN=Cc3cc(OC)c(OC)c(OC)c3)[nH]n2)cc1` [Compound 17], for which the MIC in test [1] is 5 µg/mL (≈ 12.2 µM); in [3] it was more than 80 µg/mL; in [4] it was 20 µg/mL (≈ 48.7 µM); in test [5] it was 0.625 µg/mL (≈ 1.52 µM); in test [7], 1.25 µg/mL (≈ 3.05 µM); in test [8], 5 µg/mL (≈ 12.2 µM). The MIC in test [9] came to 2.5 µg/mL (≈ 6.09 µM). The “Mechanism of inhibition of pol IIIC (double reciprocal plot)” value on B. subtilis pol IIIC [2] is recorded as “uncompetitive inhibition mechanism”. Moreover, the IC50 (usually the concentration at which inhibition is half-maximal) at B. subtilis pol IIIE (B. subtilis Pol IIIE IC50, −dATP, in the absence of dATP) is more than 780 µM; against B. subtilis pol IIIE (B. subtilis Pol IIIE IC50, −dCTP, in the absence of dCTP), more than 780 µM; against B. subtilis pol IIIE (B. subtilis Pol IIIE IC50, −dGTP, in the absence of dGTP) it was more than 780 µM; at B. subtilis pol IIIC [6] (B. subtilis Pol IIIC IC50, 4 dNTPs, in the presence of all four dNTP substrates), 36 µM; at B. subtilis pol IIIC [6] (B. subtilis Pol IIIC IC50, −dATP, in the absence of dATP), 3.1 µM; against B. subtilis pol IIIC [6] (B. subtilis Pol IIIC IC50, −dCTP, in the absence of dCTP), 2.6 µM. The same molecule showed an IC50 against B. subtilis pol IIIC [6] (B. subtilis Pol IIIC IC50, −dGTP, in the absence of dGTP) of 1.8 µM. Besides, the “Inhibition of bacterial growth, result in words (rank of MIC values)” value in the test with test strains of bacteria was “lowest MIC values”.

For the origin of these results see patent US20060258729A1, “Antibacterial pyrazole carboxylic acid hydrazides” (priority 2002, published 2006).
